In US4672068A, “Antihypertensive 1,4-dihydropyridines having a conjugated ester” (Fujirebio Kabushiki Kaisha, priority 1984, dated 1987):

Columns and labels:
[1] = test system: Male spontaneously hypertensive rats (SHR), arterial blood pressure; test: Depressor response after intravenous administration (30 μg/kg), Table 1; format: in vivo, rat; settings: for Duration: '90<' means greater than 90
Protocol: Male spontaneously hypertensive rats (SHR) which had mean arterial blood pressures higher than 140 mmHg were used for the experiments. Arterial blood pressure was measured through the catherized artery with a pressure transducer (MPU-0.5, manufactured by Nihon Kohden Kabushiki Kaisha). The catheter was inserted into the abdominal aorta via the median coccygcal artery of SHR under light ether anesthesia. The recordings were made on a rectigraph (manufactured by Sanei Sokki Kabushiki Kaisha). The 1,4-dihydropyridine derivatives prepared in the foregoing examples were administered with catheter which was inserted previously into the caudal vein or duodenum at least two hours after the operation. SHR were restrained with wire mesh cage immediately after the operation. Each derivative to be tested was dissolved in 1.5% PVP/ethanol, and then diluted with 0.9% saline or intravenous administration (30 μg/kg), or suspended in 5% gum arabic solution of intraduodenal administration (1 mg/kg).

[2] = test system: Male spontaneously hypertensive rats (SHR), arterial blood pressure; test: Depressor response after intraduodenal administration (1 mg/kg), Table 2; format: in vivo, rat; settings: for Half-life: '120<' means greater than 120
Protocol: Arterial blood pressure was measured through the catherized artery with a pressure transducer (MPU-0.5, manufactured by Nihon Kohden Kabushiki Kaisha). The catheter was inserted into the abdominal aorta via the median coccygcal artery of SHR under light ether anesthesia. The recordings were made on a rectigraph (manufactured by Sanei Sokki Kabushiki Kaisha). The 1,4-dihydropyridine derivatives prepared in the foregoing examples were administered with catheter which was inserted previously into the caudal vein or duodenum at least two hours after the operation. SHR were restrained with wire mesh cage immediately after the operation.

Compound	The time to reach the lowest BP [1] [min]	halflife (number in parentheses in Duration column) [1] [h]	ΔBP (Maximum depressor response) [1] [mmHg]	Duration [1] [min]	The time to reach the lowest BP [2] [min]	ΔBP (Maximum depressor response) [2] [mmHg]	Half-life [2] [h]
CC=CC=CCOC(=O)C1=C(C)NC(C)=C(C(=O)OC)C1c1cccc([N+](=O)[O-])c1 (stereo not shown) [Example 66, methyl 2,4-hexadienyl 4-(3-nitrophenyl)-2,6-dimethyl-1,4-dihydropyridine-3,5-dicarboxylate]	1.4	0.722	71.7	> 90	35	65	> 2
1-methyl-3-thienyl-2-propenyl methyl 4-(3-nitrophenyl)-2,6-dimethyl-1,4-dihydropyridine-3,5-dicarboxylate [Example 36]	25.0	–	69	> 220	130	59	> 4
4-(4-methoxyphenyl)-3-butenyl methyl 4-(3-nitrophenyl)-2,6-dimethyl-1,4-dihydropyridine-3,5-dicarboxylate [Example 18]	–	–	–	–	37	18	2
C#CCOC(=O)C1=C(C)NC(C)=C(C(=O)OC)C1c1cccc([N+](=O)[O-])c1 (stereo not shown) [D, 4(3-nitrophenyl)-2,6-dimethyl-1,4-dihydropyridine-3,5-dicarboxylic aci 3methyl ester 5propargyl ester, reference compound]	–	–	–	–	–	0	–
COC(=O)C1=C(C)NC(C)=C(C(=O)OCCCc2ccccc2)C1c1cccc([N+](=O)[O-])c1 (stereo not shown) [E, 4(3-nitrophenyl)-2,6-dimethyl-1,4-dihydropyridine-3,5-dicarboxylic aci 3methyl ester 5(3-phenyl)-1-propyl ester, reference compound]	–	–	–	–	–	0	–
C=CCOC(=O)C1=C(C)NC(C)=C(C(=O)OC)C1c1cccc([N+](=O)[O-])c1 (stereo not shown) [C, 4(3-nitrophenyl)-2,6-dimethyl-1,4-dihydropyridine-3,5-dicarboxylic aci 3methyl ester 5allyl ester, reference compound]	–	–	–	–	8	20	0.333
COC(=O)C1=C(C)NC(C)=C(C(=O)OCC=Cc2ccc3ccccc3c2)C1c1cccc([N+](=O)[O-])c1 (stereo not shown) [Example 29, 3-(2-naphthyl)-2-propenyl methyl 4-(3-nitrophenyl)-2,6-dimethyl-1,4-dihydropyridine-3,5-dicarboxylate]	5.0	–	25	–	–	–	–
COC(=O)C1=C(C)NC(C)=C(C(=O)OC/C=C/C=C\c2ccccc2)C1c1cccc([N+](=O)[O-])c1 (stereo not shown) [Example 58, Methyl (2E,4Z)-5-phenyl-2,4-pentadienyl 4-(3-nitrophenyl)-2,6-dimethyl-1,4-dihydropyridine-3,5-dicarboxylate]	1.9	–	64	–	–	–	–
CCSCCOC(=O)C1=C(C)NC(C)=C(C(=O)OCC=Cc2ccccc2)C1c1cccc([N+](=O)[O-])c1 (stereo not shown) [Example 41, cinnamyl 2-ethylthioethyl 4-(3-nitrophenyl)-2,6-dimethyl-1,4-dihydropyridine-3,5-dicarboxylate]	5	–	28	> 120	–	–	–
COC(=O)C1=C(C)NC(C)=C(C(=O)OC(C=Cc2ccccc2)C(C)C)C1c1cccc([N+](=O)[O-])c1 (stereo not shown) [Example 8, 1-isopropyl-3-phenyl-2-propenyl methyl 4-(3-nitrophenyl)-2,6-dimethyl-1,4-dihydropyridine-3,5-dicarboxylate]	25	–	87	> 180	–	–	–
